Test results reported in ChEMBL document CHEMBL4507265 (2021).

How the values were obtained:
[1] = biological target: Platelet-derived growth factor receptor alpha (Homo sapiens) (UniProt P16234); conditions: Compound concentration 1000.0 nM
[2] = biological target: Cyclin-dependent kinase 9 (Homo sapiens) (UniProt P50750); conditions: Compound concentration 1000.0 nM
[3] = test system: Epidermal growth factor receptor (Homo sapiens), P00533 [L858R]; conditions: Compound concentration 1000.0 nM
[4] = biological target: Serine/threonine-protein kinase Nek2 (Homo sapiens) (UniProt P51955); conditions: Compound concentration 1000.0 nM
Sequence of Serine/threonine-protein kinase Nek2 (Homo sapiens) (P51955 whole entry): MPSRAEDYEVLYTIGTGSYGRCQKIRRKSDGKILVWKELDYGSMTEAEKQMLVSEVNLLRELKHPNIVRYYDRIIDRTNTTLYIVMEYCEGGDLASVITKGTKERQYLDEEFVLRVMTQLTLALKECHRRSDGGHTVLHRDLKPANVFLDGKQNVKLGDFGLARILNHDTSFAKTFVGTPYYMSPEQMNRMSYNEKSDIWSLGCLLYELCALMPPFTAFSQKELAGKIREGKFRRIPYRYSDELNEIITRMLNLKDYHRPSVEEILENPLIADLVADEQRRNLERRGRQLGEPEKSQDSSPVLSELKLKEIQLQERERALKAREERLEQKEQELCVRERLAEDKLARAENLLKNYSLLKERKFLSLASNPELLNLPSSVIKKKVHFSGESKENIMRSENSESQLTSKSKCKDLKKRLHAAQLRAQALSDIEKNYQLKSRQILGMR

[5] = biological target: Mitogen-activated protein kinase kinase kinase kinase 2 (Homo sapiens) (UniProt Q12851); conditions: Compound concentration 1000.0 nM
[6] = biological target: Serine/threonine-protein kinase TAO1 (Homo sapiens) (UniProt Q7L7X3); conditions: Compound concentration 1000.0 nM
[7] = biological target: Serine/threonine-protein kinase 35 (Homo sapiens) (UniProt Q8TDR2); conditions: Compound concentration 1000.0 nM
[8] = biological target: Rho-associated protein kinase 2 (Homo sapiens) (UniProt O75116); conditions: Compound concentration 1000.0 nM
[9] = biological target: Serine/threonine-protein kinase WNK4 (Homo sapiens) (UniProt Q96J92); conditions: Compound concentration 1000.0 nM
[10] = biological target: Serine/threonine-protein kinase MRCK beta (Homo sapiens) (UniProt Q9Y5S2); conditions: Compound concentration 1000.0 nM
[11] = biological target: Histamine H2 receptor (Homo sapiens) (UniProt P25021); conditions: Compound concentration 10.0 uM
Sequence of Histamine H2 receptor (Homo sapiens) (P25021 whole entry): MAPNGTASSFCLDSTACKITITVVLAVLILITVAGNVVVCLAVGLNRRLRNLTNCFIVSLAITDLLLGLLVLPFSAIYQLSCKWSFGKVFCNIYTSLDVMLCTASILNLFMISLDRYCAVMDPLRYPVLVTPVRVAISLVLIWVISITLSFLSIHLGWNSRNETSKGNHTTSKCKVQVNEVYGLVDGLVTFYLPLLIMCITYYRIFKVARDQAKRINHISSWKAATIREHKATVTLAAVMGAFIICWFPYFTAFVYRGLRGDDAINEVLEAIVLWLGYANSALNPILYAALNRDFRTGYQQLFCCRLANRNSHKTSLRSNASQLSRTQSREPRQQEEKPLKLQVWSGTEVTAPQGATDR

[12] = biological target: Serine/threonine-protein kinase ULK2 (Homo sapiens) (UniProt Q8IYT8); conditions: Compound concentration 1000.0 nM
[13] = biological target: Casein kinase I isoform gamma-2 (Homo sapiens) (UniProt P78368); conditions: Compound concentration 1000.0 nM
Sequence of Casein kinase I isoform gamma-2 (Homo sapiens) (P78368 whole entry, looked up, canonical isoform): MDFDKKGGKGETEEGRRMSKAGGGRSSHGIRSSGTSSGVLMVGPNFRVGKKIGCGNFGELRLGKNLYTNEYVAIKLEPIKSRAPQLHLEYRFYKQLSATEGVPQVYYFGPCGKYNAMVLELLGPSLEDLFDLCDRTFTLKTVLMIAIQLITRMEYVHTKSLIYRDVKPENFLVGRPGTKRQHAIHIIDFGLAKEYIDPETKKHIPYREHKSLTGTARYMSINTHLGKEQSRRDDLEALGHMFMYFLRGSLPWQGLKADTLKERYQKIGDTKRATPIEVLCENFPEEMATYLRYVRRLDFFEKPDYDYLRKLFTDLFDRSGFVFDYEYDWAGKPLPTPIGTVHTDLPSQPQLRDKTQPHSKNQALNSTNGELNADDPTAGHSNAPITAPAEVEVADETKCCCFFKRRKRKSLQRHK

[14] = biological target: Serine/threonine-protein kinase RIO3 (Homo sapiens) (UniProt O14730); conditions: Compound concentration 1000.0 nM
[15] = biological target: Mitogen-activated protein kinase 8 (Homo sapiens) (UniProt P45983); conditions: Compound concentration 1000.0 nM
[16] = biological target: Delta-type opioid receptor (Homo sapiens) (UniProt P41143); conditions: Compound concentration 10.0 uM
Sequence of Delta-type opioid receptor (Homo sapiens) (P41143 whole entry): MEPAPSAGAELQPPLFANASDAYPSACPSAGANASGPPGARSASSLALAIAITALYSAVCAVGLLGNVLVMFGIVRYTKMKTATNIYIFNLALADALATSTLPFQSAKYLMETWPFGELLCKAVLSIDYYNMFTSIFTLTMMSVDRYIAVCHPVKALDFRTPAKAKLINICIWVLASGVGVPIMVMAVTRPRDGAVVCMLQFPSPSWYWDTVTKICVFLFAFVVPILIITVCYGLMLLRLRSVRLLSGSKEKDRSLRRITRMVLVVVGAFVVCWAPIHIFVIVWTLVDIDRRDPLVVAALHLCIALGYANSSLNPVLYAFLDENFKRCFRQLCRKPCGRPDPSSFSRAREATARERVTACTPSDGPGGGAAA

[17] = biological target: cAMP-dependent protein kinase catalytic subunit PRKX (Homo sapiens) (UniProt P51817); conditions: Compound concentration 1000.0 nM
[18] = biological target: Phosphatidylinositol 4-phosphate 5-kinase type-1 gamma (Homo sapiens) (UniProt O60331); conditions: Compound concentration 1000.0 nM
[19] = biological target: Ephrin type-A receptor 6 (Homo sapiens) (UniProt Q9UF33); conditions: Compound concentration 1000.0 nM
[20] = biological target: Serine/threonine-protein kinase D3 (Homo sapiens) (UniProt O94806); conditions: Compound concentration 1000.0 nM
[21] = biological target: Phosphatidylinositol 3-kinase C2 domain-containing subunit gamma (Homo sapiens) (UniProt O75747); conditions: Compound concentration 1000.0 nM
[22] = biological target: cAMP-dependent protein kinase catalytic subunit alpha (Homo sapiens) (UniProt P17612); conditions: Compound concentration 1000.0 nM
[23] = biological target: STE20/SPS1-related proline-alanine-rich protein kinase (Homo sapiens) (UniProt Q9UEW8); conditions: Compound concentration 1000.0 nM
[24] = biological target: T1, Muscarinic acetylcholine receptor M2 (Homo sapiens) (UniProt P08172); conditions: Compound concentration 10.0 uM
T1 sequence (whole entry): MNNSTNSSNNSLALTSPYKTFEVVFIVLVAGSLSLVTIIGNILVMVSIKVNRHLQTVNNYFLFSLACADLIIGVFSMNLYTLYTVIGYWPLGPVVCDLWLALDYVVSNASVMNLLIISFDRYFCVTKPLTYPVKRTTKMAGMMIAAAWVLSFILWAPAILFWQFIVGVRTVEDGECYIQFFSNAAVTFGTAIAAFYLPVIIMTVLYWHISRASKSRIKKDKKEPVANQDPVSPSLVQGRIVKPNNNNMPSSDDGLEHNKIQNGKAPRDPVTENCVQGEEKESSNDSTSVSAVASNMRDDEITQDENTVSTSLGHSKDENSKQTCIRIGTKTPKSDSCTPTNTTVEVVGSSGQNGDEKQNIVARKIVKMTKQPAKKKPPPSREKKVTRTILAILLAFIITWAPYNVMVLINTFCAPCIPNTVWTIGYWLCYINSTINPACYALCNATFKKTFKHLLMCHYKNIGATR

[25] = biological target: Ribosomal protein S6 kinase alpha-6 (Homo sapiens) (UniProt Q9UK32); conditions: Compound concentration 1000.0 nM
[26] = test system: Epidermal growth factor receptor (Homo sapiens), P00533 [L858R,T790M]; conditions: Compound concentration 1000.0 nM
[27] = biological target: Serine/threonine-protein kinase Nek9 (Homo sapiens) (UniProt Q8TD19); conditions: Compound concentration 1000.0 nM
Sequence of Serine/threonine-protein kinase Nek9 (Homo sapiens) (Q8TD19 whole entry): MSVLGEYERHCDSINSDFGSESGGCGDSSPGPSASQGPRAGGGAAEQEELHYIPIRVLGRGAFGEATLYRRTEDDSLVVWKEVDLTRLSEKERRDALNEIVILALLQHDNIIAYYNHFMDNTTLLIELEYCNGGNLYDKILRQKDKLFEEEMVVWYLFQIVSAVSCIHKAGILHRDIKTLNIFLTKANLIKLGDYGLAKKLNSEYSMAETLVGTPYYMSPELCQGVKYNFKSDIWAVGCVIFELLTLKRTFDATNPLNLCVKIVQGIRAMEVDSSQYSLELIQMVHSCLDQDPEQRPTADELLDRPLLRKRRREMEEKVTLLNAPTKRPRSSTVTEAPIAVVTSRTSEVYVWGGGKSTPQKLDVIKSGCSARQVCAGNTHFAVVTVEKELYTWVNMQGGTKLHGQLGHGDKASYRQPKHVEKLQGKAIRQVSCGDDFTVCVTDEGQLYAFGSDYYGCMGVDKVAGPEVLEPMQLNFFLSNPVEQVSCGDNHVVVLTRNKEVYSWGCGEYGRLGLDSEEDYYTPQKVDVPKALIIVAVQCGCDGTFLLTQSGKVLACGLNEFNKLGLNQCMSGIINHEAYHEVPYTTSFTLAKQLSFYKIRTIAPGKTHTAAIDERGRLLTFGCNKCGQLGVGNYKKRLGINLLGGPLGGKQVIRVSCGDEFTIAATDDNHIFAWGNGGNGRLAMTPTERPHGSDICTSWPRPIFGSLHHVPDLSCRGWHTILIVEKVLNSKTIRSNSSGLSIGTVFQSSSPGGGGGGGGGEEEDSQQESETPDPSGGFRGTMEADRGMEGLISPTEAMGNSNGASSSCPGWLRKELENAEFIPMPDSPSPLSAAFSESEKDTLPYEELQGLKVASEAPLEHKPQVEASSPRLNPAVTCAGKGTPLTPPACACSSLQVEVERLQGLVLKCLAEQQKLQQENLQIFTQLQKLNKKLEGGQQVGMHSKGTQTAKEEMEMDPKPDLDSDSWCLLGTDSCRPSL

[28] = biological target: 5-hydroxytryptamine receptor 1D (Homo sapiens) (UniProt P28221); conditions: Compound concentration 10.0 uM
[29] = test system: Fibroblast growth factor receptor 3 (Homo sapiens), P22607 [G697C]; conditions: Compound concentration 1000.0 nM
[30] = biological target: Ephrin type-B receptor 3 (Homo sapiens) (UniProt P54753); conditions: Compound concentration 1000.0 nM
[31] = biological target: Dual specificity protein kinase CLK3 (Homo sapiens) (UniProt P49761); conditions: Compound concentration 1000.0 nM
[32] = biological target: Dual specificity protein kinase TTK (Homo sapiens) (UniProt P33981); conditions: Compound concentration 1000.0 nM
Sequence of Dual specificity protein kinase TTK (Homo sapiens) (P33981 whole entry): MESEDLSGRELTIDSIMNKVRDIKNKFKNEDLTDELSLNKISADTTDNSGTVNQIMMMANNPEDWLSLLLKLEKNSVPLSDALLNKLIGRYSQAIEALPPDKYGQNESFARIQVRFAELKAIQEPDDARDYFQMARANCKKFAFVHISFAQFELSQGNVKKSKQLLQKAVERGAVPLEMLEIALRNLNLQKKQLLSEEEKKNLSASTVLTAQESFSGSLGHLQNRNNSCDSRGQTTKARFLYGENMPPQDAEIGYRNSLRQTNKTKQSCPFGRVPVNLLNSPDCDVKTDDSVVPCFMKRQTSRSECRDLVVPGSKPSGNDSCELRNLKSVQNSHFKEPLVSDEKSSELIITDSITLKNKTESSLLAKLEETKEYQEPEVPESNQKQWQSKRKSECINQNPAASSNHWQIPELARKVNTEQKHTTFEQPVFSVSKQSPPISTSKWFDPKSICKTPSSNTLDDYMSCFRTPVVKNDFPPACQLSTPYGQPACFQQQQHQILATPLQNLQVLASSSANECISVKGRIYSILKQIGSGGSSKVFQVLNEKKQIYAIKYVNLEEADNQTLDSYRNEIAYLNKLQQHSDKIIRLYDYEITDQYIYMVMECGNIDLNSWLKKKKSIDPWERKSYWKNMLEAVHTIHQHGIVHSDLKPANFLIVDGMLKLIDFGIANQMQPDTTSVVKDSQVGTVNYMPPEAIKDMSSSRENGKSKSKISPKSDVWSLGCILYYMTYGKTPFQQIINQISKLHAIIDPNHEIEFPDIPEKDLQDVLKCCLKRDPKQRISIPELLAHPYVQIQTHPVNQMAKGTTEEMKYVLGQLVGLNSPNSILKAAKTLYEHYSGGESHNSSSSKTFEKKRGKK

[33] = biological target: Serine/threonine-protein kinase ULK3 (Homo sapiens) (UniProt Q6PHR2); conditions: Compound concentration 1000.0 nM
[34] = biological target: Ephrin type-A receptor 3 (Homo sapiens) (UniProt P29320); conditions: Compound concentration 1000.0 nM
[35] = biological target: Serine/threonine-protein kinase BRSK1 (Homo sapiens) (UniProt Q8TDC3); conditions: Compound concentration 1000.0 nM
[36] = biological target: Ephrin type-A receptor 8 (Homo sapiens) (UniProt P29322); conditions: Compound concentration 1000.0 nM
[37] = biological target: Serine/threonine-protein kinase OSR1 (Homo sapiens) (UniProt O95747); conditions: Compound concentration 1000.0 nM
[38] = biological target: 5-hydroxytryptamine receptor 2C (Homo sapiens) (UniProt P28335); conditions: Compound concentration 10.0 uM
[39] = biological target: Peripheral plasma membrane protein CASK (Homo sapiens) (UniProt O14936); conditions: Compound concentration 1000.0 nM
Sequence of Peripheral plasma membrane protein CASK (Homo sapiens) (O14936 whole entry): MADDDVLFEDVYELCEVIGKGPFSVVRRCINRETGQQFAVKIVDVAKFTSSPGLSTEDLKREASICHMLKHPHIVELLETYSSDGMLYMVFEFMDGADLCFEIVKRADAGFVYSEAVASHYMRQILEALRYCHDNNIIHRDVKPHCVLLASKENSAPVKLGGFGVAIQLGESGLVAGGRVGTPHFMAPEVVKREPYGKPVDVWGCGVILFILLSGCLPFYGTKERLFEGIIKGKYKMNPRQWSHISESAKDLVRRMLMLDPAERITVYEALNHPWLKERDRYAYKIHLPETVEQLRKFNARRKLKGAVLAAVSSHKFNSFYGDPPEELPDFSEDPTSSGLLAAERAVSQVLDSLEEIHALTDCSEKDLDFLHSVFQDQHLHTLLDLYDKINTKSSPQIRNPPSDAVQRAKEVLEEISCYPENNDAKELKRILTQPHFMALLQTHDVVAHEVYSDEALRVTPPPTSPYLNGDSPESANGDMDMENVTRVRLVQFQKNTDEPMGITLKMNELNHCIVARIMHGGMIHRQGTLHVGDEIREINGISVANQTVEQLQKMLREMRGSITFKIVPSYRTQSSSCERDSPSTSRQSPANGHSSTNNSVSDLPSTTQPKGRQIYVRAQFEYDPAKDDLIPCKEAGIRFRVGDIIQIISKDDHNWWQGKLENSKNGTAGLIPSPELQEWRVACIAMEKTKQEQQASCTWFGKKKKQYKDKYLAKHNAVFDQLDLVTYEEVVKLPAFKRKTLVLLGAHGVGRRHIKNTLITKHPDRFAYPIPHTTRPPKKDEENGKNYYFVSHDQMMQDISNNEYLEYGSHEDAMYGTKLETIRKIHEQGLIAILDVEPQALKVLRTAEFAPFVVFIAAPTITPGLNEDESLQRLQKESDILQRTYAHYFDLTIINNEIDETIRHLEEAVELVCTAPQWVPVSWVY

Sequence of Cyclin-dependent kinase 9 (Homo sapiens) (P50750 whole entry): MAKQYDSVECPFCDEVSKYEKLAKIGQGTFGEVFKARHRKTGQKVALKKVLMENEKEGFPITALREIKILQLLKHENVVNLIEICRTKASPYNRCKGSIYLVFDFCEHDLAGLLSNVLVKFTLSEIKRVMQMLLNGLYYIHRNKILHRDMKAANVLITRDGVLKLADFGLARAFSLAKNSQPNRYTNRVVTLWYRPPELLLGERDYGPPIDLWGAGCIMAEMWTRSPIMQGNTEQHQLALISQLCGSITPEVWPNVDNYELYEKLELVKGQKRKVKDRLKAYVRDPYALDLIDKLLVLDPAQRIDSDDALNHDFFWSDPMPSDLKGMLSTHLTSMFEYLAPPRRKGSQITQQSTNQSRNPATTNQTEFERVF

SMILES: NS(=O)(=O)c1cc(NC(=O)C2(c3ccccc3Cl)CC2)ccc1Oc1cccc(Cl)c1 [BAY-207]
- residual activity [1]: 81%
- residual activity [2]: 78%
- residual activity [3]: 79%
- residual activity [4]: 86%
- residual activity [5]: 100%
- residual activity [6]: 91%
- residual activity [7]: 94%
- residual activity [8]: 100%
- residual activity [9]: 81%
- residual activity [10]: 62%
- inhibition [11]: 11.5%
- residual activity [12]: 100%
- residual activity [13]: 82%
- residual activity [14]: 73%
- residual activity [15]: 100%
- inhibition [16]: 41.6%
- residual activity [17]: 77%
- residual activity [18]: 48%
- residual activity [19]: 54%
- residual activity [20]: 85%
- residual activity [21]: 100%
- residual activity [22]: 94%
- residual activity [23]: 100%
- inhibition [24]: 2.03%
- residual activity [25]: 100%
- residual activity [26]: 88%
- residual activity [27]: 94%
- inhibition [28]: 6.75%
- residual activity [29]: 100%
- residual activity [30]: 62%
- residual activity [31]: 72%
- residual activity [32]: 100%
- residual activity [33]: 83%
- residual activity [34]: 100%
- residual activity [35]: 82%
- residual activity [36]: 80%
- residual activity [37]: 100%
- inhibition [38]: 19.5%
- residual activity [39]: 89%

SMILES: NS(=O)(=O)c1cc(NC(=O)Cc2ccccc2)ccc1Oc1cccc(Cl)c1 [BAY-1797]
- residual activity [1]: 80%
- residual activity [2]: 92%
- residual activity [3]: 85%
- residual activity [4]: 89%
- residual activity [5]: 84%
- residual activity [6]: 93%
- residual activity [7]: 99%
- residual activity [8]: 98%
- residual activity [9]: 0%
- residual activity [10]: 100%
- inhibition [11]: -4.85%
- residual activity [12]: 52%
- residual activity [13]: 100%
- residual activity [14]: 73%
- residual activity [15]: 69%
- inhibition [16]: 20.5%
- residual activity [17]: 91%
- residual activity [18]: 100%
- residual activity [19]: 83%
- residual activity [20]: 100%
- residual activity [21]: 72%
- residual activity [22]: 94%
- residual activity [23]: 86%
- inhibition [24]: -8.33%
- residual activity [25]: 84%
- residual activity [26]: 75%
- residual activity [27]: 83%
- inhibition [28]: 1.74%
- residual activity [29]: 100%
- residual activity [30]: 94%
- residual activity [31]: 83%
- residual activity [32]: 91%
- residual activity [33]: 74%
- residual activity [34]: 78%
- residual activity [35]: 91%
- residual activity [36]: 100%
- residual activity [37]: 78%
- inhibition [38]: 55.4%
- residual activity [39]: 86%
